Holding throughout (type): cell-based
A short description of series [1]: LC50 on immune cells (cytotoxic effect, cell viability). The procedure: The mouse immune cells are obtained from C57BL6 mouse bone marrow. The human immune cells were purified from the whole blood of healthy donors (blood bank, IMSS, Cuernavaca, Mexico).
The peptides are incubated at 37° C., 5% CO2 in the presence of 500,000 immune and non-immune cells in RPMI medium at varied concentrations and at varied times. Peptide-free cells are used as the negative control and cells incubated for 5 min at 50° C. or in the presence of DMSO (30%) are used as the positive control. After incubation, the cells are washed then labelled with propidium iodide so as to measure the cell viability. The cell viability is analysed by counting or with flow cytometry in the presence of antibodies coupled with fluorochromes corresponding to characteristic markers of each cell population. The LC50 is then calculated as being the concentration of DA2N and DA2NEQ peptides inducing the death of 50% of each one of the immune cell populations.
Cytometry data processing is carried out with FlowJo software.

The test system of series [2] is Staphylococcus aureus ATCC 6538. As to the kind of experiment: MIC/MBC, growth inhibition in liquid medium (Example 2). The conditions noted are these: Table 2. An excerpt:
(§1) Escherichia coli (ATCC 8739, ATCC ML35p and P7 BLSE), Pseudomonas aeruginosa (ATCC 9027 and ATCC 27853), Klebsiella oxytoca (CIP 7932), Klebsiella pneumoniae (CIP 52.211), Salmonella enterica (CIP 8297), Yersinia ruckeri (ATCC 29473), Vibrio parahemolyticus (IFREMER 01 01/252), Staphylococcus aureus (ATCC 6538, ST 1065 and MRSA), Staphylococcus epidermidis (BM 3302), Listeria monocytogenes (SOR 100), Enterococcus faecalis (CIP A186, CIP 103015)), Kocuria rhizophila (ATCC 9341), Lactococcus garviae (ATCC 43921), Bacillus subtilis (CIP 52.65).
(§2) For each strain, a 5 ml pre-culture in LB medium is prepared by inoculating a colony of the bacterial strain of interest. The pre-culture is incubated at 37° C. under stirring overnight. The culture is subcultured (30 µL) in 5 mL. The culture concentration is evaluated by measuring the optical density at 620 nm. The concentration is adjusted by dilution so as to obtain a suspension with an OD of 0.05 at 620 nm.
(§3) The MIC is determined using a growth inhibition test in liquid medium. The MIC is defined as being the lowest peptide concentration capable of inhibiting the bacterial strain tested, after incubation for 18 h at 37° C. The test was carried out in a sterile microtitration plate containing 96 wells. A series of increasing concentrations of each peptide (0.2 to 100 µM) was prepared beforehand in sterile MilliQ water. In each well, 10 µL of peptide was incubated with 90 µL of bacterial suspension (10^7 cfu/mL) in yeast extract-free LB medium. The microplate was incubated at 37° C. for 18 h. The bacterial growth was evaluated by measuring the OD at 620 nm using a plate reader.
(§4) The negative growth inhibition control was obtained by replacing the solution containing the peptide by sterile MilliQ water. The positive control suitable for completely inhibiting the growth of the bacterial strains was obtained by replacing the solution containing the peptide by 10 µL of formaldehyde.
(§5) The results are interpreted by calculating the percentage of bacterial growth in each well according to the formula:
(§6) %Growth = (OD well - OD of T0)/(OD of T100-OD of T0)*100 where
(§7) • OD of T100 = OD of growth control (bacterial suspension free from sample under test, 100% growth), • OD of T0 = OD of sterility control (culture medium + bacterium + 10 µL formaldehyde, 0% growth) and • OD well = OD of well for which it is sought to calculate the growth percentage (bacterial suspension + peptide under test).
(§8) The MBC is defined as being the minimum peptide concentration leaving no surviving bacteria of the inoculum after incubation at 37° C. for 24 hours. This test consists of smearing the contents of the well wherein the peptide has inhibited bacterial growth on a Petri dish (LB agar), followed by incubation for 24 h at 37° C.

In series [3] the test system is Klebsiella pneumoniae CIP 5211. Described as above. The note with it: Table 2.
Text: as §1, §2, §3, §4, §5, §6, §7, §8

Series [4] relates to Kocuria rhizophila ATCC 9341. The series is described as above. The note with it: Table 2.
Text: as §1, §2, §3, §4, §5, §6, §7, §8

For series [5], the system named is Staphylococcus aureus ST 1065. Described as above. The note with it: Table 2.
Text: as §1, §2, §3, §4, §5, §6, §7, §8

In series [6] the test system is Escherichia coli ATCC 8739. The series is described as above. The note with it: Table 2.
Text: as §1, §2, §3, §4, §5, §6, §7, §8

Series [7] has as its system Bacillus subtilis CIP 52.65. The description is as above. The note with it: Table 2.
Text: as §1, §2, §3, §4, §5, §6, §7, §8

Series [8] relates to Staphylococcus epidermidis BM 3302. Described as above. The note with it: Table 2.
Text: as §1, §2, §3, §4, §5, §6, §7, §8

In series [9] the test system is Klebsiella oxytoca CIP 7932. Described as above. The conditions noted are these: Table 2.
Text: as §1, §2, §3, §4, §5, §6, §7, §8

A short description of series [10]: Cytotoxic effects on immune cells obtained from mouse bone marrow. The conditions noted are these: mouse immune cells originating from bone marrow, read-out: LC50. The procedure:
The mouse immune cells are obtained from C57BL/6 or Balb/c mouse bone marrow. The peptides are incubated at 37° C., 5% CO2 in the presence of 500,000 immune cells in RPMI medium at varied concentrations for 2 hours. Peptide-free cells are used as the negative control and cells in the presence of DMSO (30%) are used as the positive control. After incubation, the cells are washed then labelled with Trypan blue so as to measure the cell viability by microscope counting. The LC50 is then calculated as being the concentration of DA2N, K12A and DANa peptides inducing the death of 50% of the immune cells.

The mark [11] stands for this setting: C57BL6, Neutrophils, Mouse cells.
[12] abbreviates: C57BL6, T lymphocytes, Mouse cells.

Ends that are not written are not given here.

Usually MBC stands for the smallest concentration meeting the test's criterion for killing. What is called MIC is the smallest concentration in the dilution series that meets the test's criterion for growth inhibition. Read a high MIC as a need for much substance. Consider ALWKTLLKKVGKVAGKAVLNAVTNMANQN-OH [DA2N], for which the CC50 in [1] (C57BL6, Monocytes, Mouse cells) was determined as 5 µM; in [1] (C57BL6, NK cells, Mouse cells), 3 µM; in [1] (setting [11]), 6 µM; in series [1] (setting [12]), 3 µM; in series [1] (Monocytes, Human cells) it was 4 µM; in series [1] (NK cells, Human cells) it was 4 µM. The CC50 came to 7.5 µM in series [1] (Neutrophils, Human cells) and 4 µM in series [1] (T lymphocytes, Human cells). The MBC in series [2] turned out to be 6.25 µM; in [4], 3.12 µM; in [5], 12.5 µM; in [6], 3.12 µM; in [7], 6.25 µM; in series [8], 12.5 µM. This substance also returned an MBC in series [9] of 6.25 µM. For the same substance, the MIC in [2] turned out to be 6.25 µM; in [3], 3.12 µM; in [4] it was 3.12 µM; in series [5], 12.5 µM; in series [6], 3.12 µM; in series [7], 6.25 µM. For the same substance, the MIC in series [8] is listed as 1 µM; in series [9] it was 3.12 µM. The CC50 at 2 hours in [10] turned out to be 5 µM.

As to “ALWKTLLKKVGKVAGKAVLNAVTNMANQNEQ [DA2NEQ, ALWKTLLKKVGKVAGKAVLNAVTNMANQNEQOH]”, the CC50 in series [1] (C57BL6, Monocytes, Mouse cells) was determined as 7 µM; in [1] (C57BL6, NK cells, Mouse cells) it was 4 µM; in series [1] (setting [11]), 7.5 µM; in [1] (setting [12]) it was 5 µM; in series [1] (Monocytes, Human cells), 4 µM; in series [1] (NK cells, Human cells), 4 µM. Also, the CC50 in series [1] (Neutrophils, Human cells) is 7 µM; in series [1] (T lymphocytes, Human cells) it was 5 µM. The MBC in [2] is given as 12.5 µM; in series [4], 6.25 µM; in series [5], more than 100 µM; in series [6] it was 6.25 µM; in [7], 6.25 µM; in [8], more than 100 µM. Also, the MBC in [9] is recorded as more than 100 µM. For the same substance, the MIC in series [2] is 12.5 µM; in series [3], 3.12 µM; in series [4], 6.25 µM; in series [5] it was more than 100 µM; in series [6], 3.12 µM; in series [7], 6.25 µM. Besides, the MIC in series [8] is more than 100 µM; in series [9], 12.5 µM.

For the origin of these results see patent US20230192772A1, “ANTIMICROBIAL PEPTIDES AND USES THEREOF” (SORBONNE UNIVERSITE, priority 2016, published 2023).
